Measurements published in PubChem BioAssay AID330 (DTP/NCI, 2004).
“And” between values parts separate entries of the source, which are not always exact repeats. Equal entries are not always repeated. Toxic doses and inconclusive results are not listed.

Test system: P388 leukemia ip, CD2F1 mice, survival T/C
Test: NCI In Vivo Anticancer Drug Screen. Data for tumor model P388 Leukemia (intraperitoneal) in CD2F1 (CDF1) mice
Settings: endpoint: median survival time, higher = longer survival
Method in brief: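 Mice carrying the transplanted tumor received test compound or vehicle. Survival was recorded in each group, and the value is the treated-group measurement divided by that of the vehicle-treated control group.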

[1] = dose: 60.0 mg/kg/injection, schedule: Q01DX005 (ip), vehicle: saline with Tween-80
[2] = dose: 120.0 mg/kg/injection, schedule: Q01DX005 (ip), vehicle: saline with Tween-80
[3] = dose: 240.0 mg/kg/injection, schedule: Q01DX005 (ip), vehicle: saline with Tween-80
[4] = dose: 50.0 mg/kg/injection, schedule: Q01DX005 (ip), vehicle: Klucel (hydroxypropylcellulose) (HPC)
[5] = dose: 100.0 mg/kg/injection, schedule: Q01DX005 (ip), vehicle: Klucel (hydroxypropylcellulose) (HPC)
[6] = dose: 200.0 mg/kg/injection, schedule: Q01DX005 (ip), vehicle: Klucel (hydroxypropylcellulose) (HPC)
[7] = dose: 100.0 mg/kg/injection, schedule: Q01DX009 (ip), vehicle: saline with Tween-80
[8] = dose: 50.0 mg/kg/injection, schedule: Q01DX005 (ip), vehicle: saline with Tween-80
[9] = dose: 100.0 mg/kg/injection, schedule: Q01DX005 (ip), vehicle: saline with Tween-80
[10] = dose: 50.0 mg/kg/injection, schedule: Q01DX009 (ip), vehicle: saline with Tween-80
[11] = dose: 200.0 mg/kg/injection, schedule: Q01DX009 (ip), vehicle: saline with Tween-80

For `COC1/C=C\C=C(/C)C(=O)NC2=CC(=O)C(N)=C(CC(C)CC(OC)C(O)C(C)C=C(C)C1OC(N)=O)C2=O` (stereo not drawn), the T/C (dose: 0.75 mg/kg/injection, schedule: Q01DX009 (ip), vehicle: saline with Tween-80) was 103 % of control, the T/C (dose: 1.5 mg/kg/injection, schedule: Q01DX009 (ip), vehicle: saline with Tween-80) was 105 % of control and the T/C (dose: 3.0 mg/kg/injection, schedule: Q01DX009 (ip), vehicle: saline with Tween-80) was 111 % of control. For the same compound, the T/C (dose: 6.0 mg/kg/injection, schedule: Q01DX009 (ip), vehicle: saline with Tween-80) was 87 % of control.

`Cn1nc(-c2ccc(Cl)c(Cl)c2)nc2c(=O)n(C)c(=O)nc1-2` was tested, and the T/C (dose: 12.5 mg/kg/injection, schedule: Q01DX001 (ip), vehicle: Klucel (hydroxypropylcellulose) (HPC)) was 102 % of control, the T/C (dose: 25.0 mg/kg/injection, schedule: Q01DX001 (ip), vehicle: Klucel (hydroxypropylcellulose) (HPC)) was 107 % of control and the T/C (dose: 50.0 mg/kg/injection, schedule: Q01DX001 (ip), vehicle: Klucel (hydroxypropylcellulose) (HPC)) was 103 % of control and 114 % of control.

With `O=C(O)c1ccccc1-c1c2ccc(=Nc3ccccc3)cc-2oc2cc(Nc3ccc(S(=O)(=O)O)cc3)ccc12` the T/C (dose: 50.0 mg/kg/injection, schedule: Q01DX005 (ip), vehicle: saline) was 94 % of control, the T/C (dose: 100.0 mg/kg/injection, schedule: Q01DX005 (ip), vehicle: saline) was 98 % of control and the T/C (dose: 200.0 mg/kg/injection, schedule: Q01DX005 (ip), vehicle: saline) was 111 % of control.

In the case of `CC1C(=O)C(C)C(c2ccccc2)OC1c1ccccc1` (stereo not drawn), the T/C (dose: 50.0 mg/kg/injection, schedule: Q04DX003 (ip), vehicle: saline) is reported as 97 % of control, the T/C (dose: 100.0 mg/kg/injection, schedule: Q04DX003 (ip), vehicle: saline) is reported as 100 % of control and the T/C (dose: 200.0 mg/kg/injection, schedule: Q04DX003 (ip), vehicle: saline) is reported as 107 % of control.

With `COc1cc(C(c2cc3c(cc2OC(C)=O)OCO3)C(C)C(C)=O)cc(OC)c1OC` (stereo not drawn) the T/C [1] was 102 % of control, the T/C [2] was 108 % of control and the T/C [3] was 111 % of control.

With `CC1(C)OC2COC3OC(C)(C)OC3(/C=N\NC(=O)c3cc4cc(OCc5ccccc5)ccc4[nH]3)C2O1` (stereo not drawn) the T/C [4] was 101 % of control, the T/C [5] was 95 % of control and the T/C [6] was 97 % of control.

In the case of `Cc1nnc2c(=O)n(C)ccn12`, the T/C (dose: 25.0 mg/kg/injection, schedule: Q01DX001 (ip), vehicle: saline with Tween-80) is reported as 95 % of control, the T/C (dose: 50.0 mg/kg/injection, schedule: Q01DX001 (ip), vehicle: saline with Tween-80) is reported as 95 % of control and the T/C (dose: 100.0 mg/kg/injection, schedule: Q01DX001 (ip), vehicle: saline with Tween-80) is reported as 97 % of control.

In the case of `CC1=C(CCC(C)CO)OC2CC3C4CCC5CC(O)CCC5(C)C4CCC3(C)C12` (stereo not drawn), the T/C (dose: 25.0 mg/kg/injection, schedule: Q01DX009 (ip), vehicle: suspension in saline) is reported as 90 % of control and 95 % of control, the T/C (dose: 50.0 mg/kg/injection, schedule: Q01DX009 (ip), vehicle: suspension in saline) is reported as 96 % of control and the T/C (dose: 100.0 mg/kg/injection, schedule: Q01DX009 (ip), vehicle: suspension in saline) is reported as 88 % of control and 94 % of control. For the same compound, the T/C (dose: 200.0 mg/kg/injection, schedule: Q01DX009 (ip), vehicle: suspension in saline) was 87 % of control and 89 % of control.

In the case of `COC(=O)/C=C(\C)Oc1cc(Cl)c(Cl)cc1Cl`, the T/C [7] is reported as 91 % of control and the T/C (dose: 400.0 mg/kg/injection, schedule: Q01DX009 (ip), vehicle: saline with Tween-80) is reported as 87 % of control.

With `COc1ccc2c(c1)CCC1C2=CCC2C(=O)OC(=O)C21C` (stereo not drawn) the T/C [8] was 103 % of control and the T/C [9] was 108 % of control.

In the case of `O=S(=O)(Cl)c1ccccc1` (tested in a mixture with another compound), the T/C [1] is reported as 104 % of control, the T/C [2] is reported as 99 % of control and the T/C [3] is reported as 99 % of control.

`O=C(NC(=NC(=Nc1ccccc1)c1ccccc1)c1ccccc1)c1ccccc1` was tested, and the T/C [10] was 99 % of control, the T/C [7] was 102 % of control and the T/C [11] was 99 % of control.

With `Cc1onc(-c2ccccc2)c1C(=O)OCCOc1ccc(C(F)(F)F)cc1[N+](=O)[O-]` the T/C [1] was 99 % of control, the T/C [2] was 90 % of control and the T/C [3] was 90 % of control.

In the case of `CCCCCCCCCCCCCCCCCCCCCCCCC(O)C(=O)NC(CO)C(O)C(O)CCCCCCCCCCCCCC` (stereo not drawn), the T/C (dose: 1.56 mg/kg/injection, schedule: Q04DX003 (ip), vehicle: saline with Tween-80) is reported as 91 % of control, the T/C (dose: 3.13 mg/kg/injection, schedule: Q04DX003 (ip), vehicle: saline with Tween-80) is reported as 100 % of control and the T/C (dose: 6.25 mg/kg/injection, schedule: Q04DX003 (ip), vehicle: saline with Tween-80) is reported as 95 % of control.

In the case of `Cc1cc(NCCCCCCNc2cc(C)nc3cc([N+](=O)[O-])ccc23)c2ccc([N+](=O)[O-])cc2n1`, the T/C (dose: 50.0 mg/kg/injection, schedule: Q01DX009 (ip), vehicle: other) is reported as 98 % of control, the T/C (dose: 100.0 mg/kg/injection, schedule: Q01DX009 (ip), vehicle: other) is reported as 99 % of control and the T/C (dose: 200.0 mg/kg/injection, schedule: Q01DX009 (ip), vehicle: other) is reported as 96 % of control. For the same compound, the T/C (dose: 400.0 mg/kg/injection, schedule: Q01DX009 (ip), vehicle: other) was 103 % of control.

In the case of `CCN(CC)CCOC(=O)C(OCCCc1ccccc1)(c1ccccc1)c1ccccc1`, the T/C [4] is reported as 111 % of control and the T/C [5] is reported as 112 % of control.

For `COc1cccc2c1C(=O)c1c(O)c3c(c(O)c1C2=O)C[C@@](O)(C(C)=O)C[C@@H]3OC1CC(N(C)C)C(O)C(C)O1` (stereo partly drawn), the T/C (dose: 0.25 mg/kg/injection, schedule: Q01DX009 (ip), vehicle: water) was 115 % of control, the T/C (dose: 0.5 mg/kg/injection, schedule: Q01DX009 (ip), vehicle: water) was 158 % of control and the T/C (dose: 0.63 mg/kg/injection, schedule: Q04DX003 (ip), vehicle: water) was 115 % of control. The T/C (dose: 1.0 mg/kg/injection, schedule: Q01DX009 (ip), vehicle: water) was 171 % of control and 190 % of control, the T/C (dose: 1.25 mg/kg/injection, schedule: Q01DX001 (ip), vehicle: water) was 116 % of control and the T/C (dose: 1.25 mg/kg/injection, schedule: Q04DX003 (ip), vehicle: water) was 100 % of control. The T/C (dose: 2.0 mg/kg/injection, schedule: Q01DX009 (ip), vehicle: water) was 200 % of control and 228 % of control, the T/C (dose: 2.16 mg/kg/injection, schedule: Q04DX003 (ip), vehicle: water) was 151 % of control and the T/C (dose: 2.5 mg/kg/injection, schedule: Q04DX003 (ip), vehicle: water) was 109 % of control. For the same compound, the T/C (dose: 4.0 mg/kg/injection, schedule: Q01DX009 (ip), vehicle: water) was 98 % of control and 88 % of control, the T/C (dose: 5.0 mg/kg/injection, schedule: Q04DX003 (ip), vehicle: water) was 104 % of control and 121 % of control and the T/C (dose: 6.0 mg/kg/injection, schedule: Q04DX003 (ip), vehicle: water) was 170 % of control. For the same compound, the T/C (dose: 10.0 mg/kg/injection, schedule: Q01DX001 (ip), vehicle: water) was 154 % of control, the T/C (dose: 10.0 mg/kg/injection, schedule: Q04DX003 (ip), vehicle: water) was 199 % of control and the T/C (dose: 16.7 mg/kg/injection, schedule: Q04DX003 (ip), vehicle: water) was 93 % of control. For the same compound, the T/C (dose: 20.0 mg/kg/injection, schedule: Q01DX001 (ip), vehicle: water) was 169 % of control, the T/C (dose: 20.0 mg/kg/injection, schedule: Q04DX003 (ip), vehicle: water) was 123 % of control and the T/C (dose: 40.0 mg/kg/injection, schedule: Q04DX003 (ip), vehicle: water) was 114 % of control.

With `CCCCN1C(=O)C(=O)N(c2ccccc2)C1=O` the T/C [1] was 102 % of control, the T/C [2] was 102 % of control and the T/C [3] was 94 % of control.

For `Cc1cc(Cl)c2cc3c(cc2n1)OCO3`, the T/C [4] was 106 % of control, the T/C [5] was 104 % of control and the T/C [6] was 98 % of control.

With `C#CC(CC)(CC)N1CC(OC(=O)NCC=C)C1` the T/C (dose: 50.0 mg/kg/injection, schedule: Q01DX009 (ip), vehicle: Klucel (hydroxypropylcellulose) (HPC)) was 100 % of control, the T/C (dose: 100.0 mg/kg/injection, schedule: Q01DX009 (ip), vehicle: Klucel (hydroxypropylcellulose) (HPC)) was 97 % of control and the T/C (dose: 200.0 mg/kg/injection, schedule: Q01DX009 (ip), vehicle: Klucel (hydroxypropylcellulose) (HPC)) was 95 % of control.

`O=C1c2ccccc2C(O)(C#Cc2ccccc2)c2cc(Cl)ccc21` (stereo not drawn) was tested, and the T/C [10] was 106 % of control, the T/C [7] was 102 % of control and the T/C [11] was 90 % of control.

In the case of `CN1CCC(c2ccccc2)=C(Br)C1`, the T/C (dose: 60.0 mg/kg/injection, schedule: Q01DX005 (ip), vehicle: saline) is reported as 102 % of control and the T/C (dose: 120.0 mg/kg/injection, schedule: Q01DX005 (ip), vehicle: saline) is reported as 98 % of control.

In the case of `O=C(NN1C(=O)CS(=O)(=O)C1c1ccc(Cl)cc1Cl)c1ccncc1` (stereo not drawn), the T/C [8] is reported as 100 % of control, the T/C [9] is reported as 100 % of control and the T/C (dose: 200.0 mg/kg/injection, schedule: Q01DX005 (ip), vehicle: saline with Tween-80) is reported as 102 % of control.
